According to patent US20240132450A1, “MODULATORS OF G PROTEIN-COUPLED RECEPTOR 88” (ACADIA Pharmaceuticals Inc., priority 2020, published 2024):

Molecular target: hGPR88 receptor (Homo sapiens, UniProt Q9GZN0)
Assay: hGPR88-HEK cAMP accumulation assay
Settings: GRP88 agonist activity (EC50), HEK-293 cells expressing human recombinant GPR88, forskolin 200 nM, High/Medium/Low bands
Procedure: Biological Assay 1: hGPR88-HEK cAMP Accumulation Assay
Cryopreserved vials of HEK-293 cells expressing human recombinant GPR88 receptor are re-suspended in KRH assay buffer and 5 μl of cell solution is suspended in test wells at a seeding density of 2500±500 cells per well using the multidrop to provide a final reaction volume of 10 μl containing 0.5% DMSO. Assay plate is incubated for 30 min at room temperature and the reaction is terminated by addition of 5 μl of each of the cAMP detection reagents of the cAMP Gi kit (Cisbio Bioassays, 62AM9PEJ), diluted in cell lysis buffer, to each well using the multidrop in the following order: first the cAMP-d2 conjugate, then the anti-cAMP cryptate conjugate. […] Raw counts were converted to cAMP concentrations via a standard curve before EC50 and Emax determination. Data is expressed as % decrease in forskolin stimulated cAMP compared to cells treated with vehicle alone in the same buffer and on the same plate.

hGPR88 receptor, sequence (Q9GZN0 whole entry): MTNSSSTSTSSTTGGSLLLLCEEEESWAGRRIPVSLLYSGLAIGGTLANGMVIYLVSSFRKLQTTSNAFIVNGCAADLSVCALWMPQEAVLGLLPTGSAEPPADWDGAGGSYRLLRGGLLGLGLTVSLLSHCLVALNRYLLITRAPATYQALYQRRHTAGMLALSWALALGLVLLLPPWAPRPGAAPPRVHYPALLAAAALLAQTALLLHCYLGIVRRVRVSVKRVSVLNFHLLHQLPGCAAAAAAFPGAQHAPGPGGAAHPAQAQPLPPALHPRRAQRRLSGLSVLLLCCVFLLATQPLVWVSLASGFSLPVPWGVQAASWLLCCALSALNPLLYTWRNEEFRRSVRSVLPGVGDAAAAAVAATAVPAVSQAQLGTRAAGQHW

Row | EC50 [µM] | Compound
1 | > 5 | COCc1ccc(-c2ccc(N(C[C@@H](O)[C@@H](C)OC)C(=O)C3CC3c3ccccn3)cc2)cc1 (mixture of isomers) [Example 5, (rac-trans)-N-((2R,3R)-2-hydroxy-3-methoxybutyl)-N-(4′-methoxymethyl)-[1,1′-biphenyl]-4-yl)-2-(pyridin-2-yl)cyclopropane-1-carboxamide]
2 | 1 to 5 | CCCc1ccc(C23CC(NC(=O)C4CC4c4ccccn4)(C2)C3)cc1 (racemic) [Example 34, (rac-trans)-N-(3-(4-propylphenyl)bicyclo[1.1.1]pentan-1-yl)-2-(pyridin-2-yl)cyclopropane-1-carboxamide]
3 | 1 to 5 | O=C(Nc1ccc(-c2ccc(CN3CCOCC3)cc2)cc1)C1CC1c1ccccn1 (racemic) [Example 37, (1R*,2R*)-N-(4′-(morpholinomethyl)-[1,1′-biphenyl]-4-yl)-2-(pyridin-2-yl)cyclopropane-1-carboxamide]
4 | > 5 | COCc1ccc(-c2ccc3c(c2)CCCN3C(=O)C2CC2c2ccccn2)cc1 (racemic) [Example 43, (6-(4-(methoxymethyl)phenyl)-3,4-dihydroquinolin-1(2H)-yl)((rac-trans)-2-(pyridin-2-yl)cyclopropyl)methanone]
5 | 1 to 5 | COCc1ccc(C23CC(NC(=O)C4CC4c4ccccn4)(C2)C3)cc1 (racemic) [Example 44, (rac-trans)-N-(3-(4-(methoxymethyl)phenyl)bicyclo[1.1.1]pentan-1-yl)-2-(pyridin-2-yl)cyclopropane-1-carboxamide]
6 | > 5 | CN(C)Cc1ccc(-c2ccc(NC(=O)C3CC3c3ccccn3)cc2)cc1 (racemic) [Example 48, (rac-trans)-N-(4′-(dimethylamino)methyl)-[1,1′-biphenyl]-4-yl)-2-(pyridin-2-yl)cyclopropane-1-carboxamide]
7 | 1 to 5 | COCc1ccc(-c2ccc3c(c2)CCN3C(=O)C2CC2c2ccccn2)cc1 (racemic) [Example 50, (5-(4-(methoxymethyl)phenyl)indolin-1-yl)((rac-trans)-2-(pyridin-2-yl)cyclopropyl)methanone]
8 | > 5 | COCc1ccc(-c2ccc(NC(=O)C3CC3c3ccc(F)cc3)cc2)cc1 (racemic) [Example 54, (rac-trans)-2-(4-fluorophenyl)-N-(4′-(methoxymethyl)-[1,1′-biphenyl]-4-yl)cyclopropane-1-carboxamide]
9 | > 5 | COCc1ccc(-c2ccc(NC(=O)C3CC3c3ccccc3)cc2)cc1 (racemic) [Example 61, (rac-trans)-N-(4′-(methoxymethyl)-[1,1′-biphenyl]-4-yl)-2-phenylcyclopropane-1-carboxamide]
10 | > 5 | COCc1ccc(-c2ccc(N(C)C(=O)C3CC3c3ccccn3)cc2)cc1 (racemic) [Example 73, (rac-trans)-N-(4′-(methoxymethyl)-[1,1′-biphenyl]-4-yl)-N-methyl-2-(pyridin-2-yl)cyclopropane-1-carboxamide]
11 | > 5 | CN(C)Cc1ccc(-c2ccc(NC(=O)C3CC3c3ccccn3)nc2)cc1 (racemic) [Example 82, (rac-trans)-N-(5-(4-((dimethylamino)methyl)phenyl)pyridin-2-yl)-2-(pyridin-2-yl)cyclopropane-1-carboxamide]
12 | 1 to 5 | O=C(Nc1ccc(-c2ccc(CN3CCOCC3)cc2)cn1)C1CC1c1ccccn1 (racemic) [Example 83, (rac-trans)-N-(5-(4-(morpholinomethyl)phenyl)pyridin-2-yl)-2-(pyridin-2-yl)cyclopropane-1-carboxamide]
13 | 1 to 5 | CC(C)Oc1ccc(-c2ccc(NC(=O)C3CC3c3ccccn3)cc2)cc1 (racemic) [Example 90, (rac-trans)-N-(4′-isopropoxy-[1,1′-biphenyl]-4-yl)-2-(pyridin-2-yl)cyclopropane-1-carboxamide]
14 | 1 to 5 | CC(C)Oc1ccc(-c2ccc(NC(=O)C3CC3c3ccccn3)cc2)cn1 (racemic) [Example 109, (rac-trans)-N-(4-(6-isopropoxypyridin-3-yl)phenyl)-2-(pyridin-2-yl) cyclopropane-1-carboxamide]
15 | 1 to 5 | COCc1ccc(C23CC(NC(=O)C4CC4c4ccccn4)(C2)C3)cc1 (racemic) [Example 110, (rac-trans)-N-(3-(4-(methoxymethyl)phenyl)bicyclo[1.1.1]pentan-1-yl)-2-(pyridin-2-yl)cyclopropane-1-carboxamide]
16 | > 5 | COCc1ccc(C23CC(NC(=O)C4CC4c4ccccn4)(C2)C3)cc1 (racemic) [Example 112, (rac-trans)-N-(3-(4-(methoxymethyl)phenyl)bicyclo[1.1.1]pentan-1-yl)-2-(pyridin-2-yl)cyclopropane-1-carboxamide]
17 | 1 to 5 | COCc1ccc(-c2ccc(NC(=O)C3CC3c3ccccn3)nc2)cc1 (racemic) [Example 120, (rac-trans)-N-(5-(4-(methoxymethyl)phenyl)pyridin-2-yl)-2-(pyridin-2-yl)cyclopropane-1-carboxamide]
18 | > 5 | COCc1ccc(-c2ccc(NC(=O)C3CC3c3ccccn3)cc2)cc1 (single isomer, unassigned) [Example 19, N-(4′-(methoxymethyl)-[1,1′-biphenyl]-4-yl)-2-(pyridin-2-yl)cyclopropane-1-carboxamide]

Row | EC50 [µM] | Compound
19 | 1 to 5 | O=C(Nc1ccc(-c2ccc(CN3CCOCC3)cc2)cc1)C1CC1c1ccccn1 (single isomer, unassigned) [Example 77, (1R*,2R*)-N-(4′-(morpholinomethyl)-[1,1′-biphenyl]-4-yl)-2-(pyridin-2-yl)cyclopropane-1-carboxamide]
20 | 1 to 5 | CC(c1ccc(-c2ccc(NC(=O)C(C)(C)Oc3ccc(F)cc3)cc2)cc1)N1CCOCC1 (single isomer, unassigned) [Example 122, 2-(4-fluorophenoxy)-2-methyl-N-(4′-(1-morpholinoethyl)-[1,1′-biphenyl]-4-yl)propanamide]
21 | < 1 | CC(c1ccc(-c2ccc(NC(=O)C(C)(C)Oc3ccc(F)cc3)cc2)cc1)N1CCOCC1 (single isomer, unassigned) [Example 123, 2-(4-fluorophenoxy)-2-methyl-N-(4′-(1-morpholinoethyl)-[1,1′-biphenyl]-4-yl)propanamide]
22 | > 5 | O=C(Nc1ccc(-c2ccc(OC3CC3)cc2)cc1)C1CC1c1ccccn1 (single isomer, unassigned) [Example 130, N-(4′-cyclopropoxy-[1,1′-biphenyl]-4-yl)-2-(pyridin-2-yl)cyclopropane-1-carboxamide]
23 | 1 to 5 | CC(C)Oc1ccc(-c2ccc(NC(=O)C3CC3c3ccccn3)cc2)cn1 (single isomer, unassigned) [Example 133, N-(4-(6-isopropoxypyridin-3-yl)phenyl)-2-(pyridin-2-yl)cyclopropane-1-carboxamide]
24 | > 5 | CC(C)Oc1ccc(-c2ccc(NC(=O)C3CC3c3ccccn3)cc2)cn1 (single isomer, unassigned) [Example 134, N-(4-(6-isopropoxypyridin-3-yl)phenyl)-2-(pyridin-2-yl)cyclopropane-1-carboxamide]
25 | > 5 | COCc1ccc(-c2ccc(NC(=O)C(C)Oc3ccc(F)cc3)cc2)cc1 (stereo not drawn) [Example 6]
26 | > 5 | CC(C)(Oc1ccc(F)cc1)C(=O)Nc1ccc(-c2ccc(C(F)(F)F)cc2)cc1 [Example 10, 2-(4-fluorophenoxy)-2-methyl-N-(4′-(trifluoromethyl)-[1,1′-biphenyl]-4-yl)propenamide]
27 | > 5 | COc1ccc(-c2ccc(NC(=O)C(C)(C)Oc3ccc(F)cc3)cc2)cc1 [Example 11, 2-(4-fluorophenoxy)-N-(4′-methoxy-[1,1′-biphenyl]-4-yl)-2-methylpropanamide]
28 | > 5 | CC(C)(Oc1ccc(F)cc1)C(=O)Nc1ccc(-c2ccc(OC(F)(F)F)cc2)cc1 [Example 12, 2-(4-fluorophenoxy)-2-methyl-N-(4′-(trifluoromethoxy)-[1,1′-biphenyl]-4-yl)propanamide]
29 | 1 to 5 | CCN(C(=O)C(C)(C)Oc1ccc(F)cc1)c1ccc(-c2ccc(COC)cc2)cc1 [Example 14, N-ethyl-2-(4-fluorophenoxy)-N-(4′-(methoxymethyl)-[1,1′-biphenyl]-4-yl)-2-methylpropanamide]
30 | 1 to 5 | COCCN(C(=O)C(C)(C)Oc1ccc(F)cc1)c1ccc(-c2ccc(COC)cc2)cc1 [Example 15, 2-(4-fluorophenoxy)-N-(2-methoxyethyl)-N-(4′-(methoxymethyl)-[1,1′-biphenyl]-4-yl)-2-methylpropanamide]
31 | > 5 | CN(C)C(=O)c1ccc(-c2ccc(NC(=O)C(C)(C)Oc3ccc(F)cc3)cc2)cc1 [Example 16, 4′-(2-(4-fluorophenoxy)-2-methylpropanamido)-N,N-dimethyl-[1,1′-biphenyl]-4-carboxamide]
32 | > 5 | CCCN(C(=O)C(C)(C)Oc1ccc(F)cc1)c1ccc(-c2ccc(C)cc2)cc1 [Example 20, 2-(4-fluorophenoxy)-2-methyl-N-(4′-methyl-[1,1′-biphenyl]-4-yl)-N-propylpropanamide]
33 | > 5 | Cc1ccc(-c2ccc(N(CC(C)C)C(=O)C(C)(C)Oc3ccc(F)cc3)cc2)cc1 [Example 21, 2-(4-fluorophenoxy)-N-isobutyl-2-methyl-N-(4′-methyl-[1,1′-biphenyl]-4-yl)-2-methylpropanamide]
34 | 1 to 5 | CCCN(C(=O)C(C)(C)Oc1ccc(F)cc1)c1ccc(-c2ccc(COC)cc2)cc1 [Example 22, 2-(4-fluorophenoxy)-N-(4′-(methoxymethyl)-[1,1′-biphenyl]-4-yl)-2-methyl-N-propylpropanamide]
35 | > 5 | COCc1ccc(-c2ccc(N(CC(C)C)C(=O)C(C)(C)Oc3ccc(F)cc3)cc2)cc1 [Example 23, 2-(4-fluorophenoxy)-N-isobutyl-N-(4′-(methoxymethyl)-[1,1′-biphenyl]-4-yl)-2-methylpropanamide]
36 | > 5 | Cc1ncc(-c2ccc(NC(=O)C(C)(C)Oc3ccc(F)cc3)cc2)cn1 [Example 24, 2-(4-fluorophenoxy)-2-methyl-N-(4-(2-methylpyrimidin-5-yl)phenyl)propenamide]
